Source: US12624037B2, “Method of treating agitation, aggressive behavior, and impulse control disorder” (INTRA-CELLULAR THERAPIES, INC., priority 2012, dated 2026)

Experiments:
[1] = system: veterans with non-remitting posttraumatic stress disorder; assay: Open label study of Compound A as adjunctive treatment to SSRI in non-remitting PTSD; assay type: in vivo, human
Protocol: The target dose is 40 mg/d, but the dose is reduced to 20 mg/d as needed due to side effects. The study medication is stored and dispensed by the TVAMC pharmacy. The baseline SSRI medication is continued throughout the 12-wks study.
Baseline Procedures and Follow-up Assessments: Subjects are assessed by the investigators or trained clinical research coordinators with telephone contacts every two weeks and the assessments (indicated in the Table below) every four weeks.
Clinician Administered PTSD Scale (CAPS; Primary Outcome): A structured clinician-administered interview is used to assess frequency and intensity of 17 symptoms of PTSD. The CAPS is further subdivided into three clusters to allow scoring for Criterion B (re-experiencing), Criterion C (avoidant behaviors) and Criterion D (hyper-arousal). […]
In addition to change scores, rates of response (≥30% decrease in CAPS) and remission ([…]) are determined Within-group effect sizes using Cohen's d for the continuous outcomes is determined. The number needed to treat (NNT) for response and remission rates is determined. […]

[2] = system: Mice; assay: Social defeat/resident intruder paradigm, social isolation behavior; assay type: in vivo
Protocol: Mice are tested for social isolation behavior after repeated exposure (once daily for 10 days) to an aggressive resident intruder mouse in the social defeat/resident intruder paradigm as describe by Berton et al., Science (2006) 311:864-868, the contents of which are incorporated by reference. […] On the day after the last drug or vehicle treatment, the mice are placed in the open field in the presence of a resident intruder mouse and the animal's behavior recorded by videotape for 10 min. The videotapes are then scored for the total time each mouse spent during a 10 min period in specified open-field quadrants. The total time (sec) spent by mice representing each drug treatment group in the Interaction Zone in proximity to the resident intruder mouse or, in the Corner Zones, at a distance from the intruder mouse is expressed as a mean (±SEM).
In the experiment described or similarly described above, mice are subjected to exposure to an aggressive resident intruder mouse in the social defeat/resident intruder paradigm as described in Berton et al., Science (2006) 311:864-868. […] On the day after the last drug or vehicle treatment the mice are placed in the open field in the presence of a resident intruder mouse and the total time each mouse spent during a 10 min period in defined open-field quadrants in close proximity to the intruder or in isolation to the intruder is measured.

[3] = system: muscarinic receptors; assay: Muscarinic receptor affinity; assay type: binding
[4] = system: healthy male volunteers; assay: Placebo-controlled multiple oral dose study, once daily for 5 days; assay type: in vivo, human
Text: (§1) Pregnant or nursing women are excluded and men and women of childbearing potential use birth control.

[5] = system: healthy volunteer and clinical populations; assay: Safety and tolerability in healthy volunteer and clinical populations; assay type: in vivo, human
Text: Physical Risks: Side effects are listed in the informed consent and reviewed carefully with the subject.
as §1

[6] = system: any CYP enzyme; assay: CYP enzyme inhibition; assay type: in vitro ADME
[7] = biological target: 5-HT2C receptor (Homo sapiens, UniProt P28335); details: read-out: 5-HT2C Ki
Chain of 5-HT2C receptor (P28335 33-458): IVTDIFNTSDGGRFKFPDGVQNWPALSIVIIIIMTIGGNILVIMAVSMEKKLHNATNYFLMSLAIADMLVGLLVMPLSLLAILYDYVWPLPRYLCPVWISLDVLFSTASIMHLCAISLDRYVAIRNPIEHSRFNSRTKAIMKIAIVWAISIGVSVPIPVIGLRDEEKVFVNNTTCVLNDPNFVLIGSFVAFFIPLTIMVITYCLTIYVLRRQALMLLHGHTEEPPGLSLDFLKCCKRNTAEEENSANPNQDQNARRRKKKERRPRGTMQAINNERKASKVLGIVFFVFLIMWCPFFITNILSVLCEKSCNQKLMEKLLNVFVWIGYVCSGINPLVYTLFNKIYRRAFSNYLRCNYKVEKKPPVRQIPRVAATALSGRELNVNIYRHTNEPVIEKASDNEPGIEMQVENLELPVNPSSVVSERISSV

[8] = biological target: H1 (Homo sapiens, UniProt P35367); assay: H1 receptor affinity (off-target); assay type: binding
Chain of H1 (P35367 whole entry): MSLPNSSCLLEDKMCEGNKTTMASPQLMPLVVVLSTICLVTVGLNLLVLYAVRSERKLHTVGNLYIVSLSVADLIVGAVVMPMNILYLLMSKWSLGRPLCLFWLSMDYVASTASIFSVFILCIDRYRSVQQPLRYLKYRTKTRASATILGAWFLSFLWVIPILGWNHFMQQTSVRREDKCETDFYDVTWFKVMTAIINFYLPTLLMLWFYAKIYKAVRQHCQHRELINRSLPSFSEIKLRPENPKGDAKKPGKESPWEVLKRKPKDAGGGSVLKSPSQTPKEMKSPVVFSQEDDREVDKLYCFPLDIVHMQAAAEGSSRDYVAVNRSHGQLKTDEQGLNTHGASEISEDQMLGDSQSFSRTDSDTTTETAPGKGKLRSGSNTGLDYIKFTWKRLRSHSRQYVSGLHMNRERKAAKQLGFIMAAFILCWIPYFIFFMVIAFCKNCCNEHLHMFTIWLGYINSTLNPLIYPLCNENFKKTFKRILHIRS

[9] = biological target: cytochrome P450 3A4 (CYP3A4) (Homo sapiens, UniProt P08684); assay: Metabolism by cytochrome P450; assay type: in vitro ADME
Chain of cytochrome P450 3A4 (CYP3A4) (P08684 whole entry): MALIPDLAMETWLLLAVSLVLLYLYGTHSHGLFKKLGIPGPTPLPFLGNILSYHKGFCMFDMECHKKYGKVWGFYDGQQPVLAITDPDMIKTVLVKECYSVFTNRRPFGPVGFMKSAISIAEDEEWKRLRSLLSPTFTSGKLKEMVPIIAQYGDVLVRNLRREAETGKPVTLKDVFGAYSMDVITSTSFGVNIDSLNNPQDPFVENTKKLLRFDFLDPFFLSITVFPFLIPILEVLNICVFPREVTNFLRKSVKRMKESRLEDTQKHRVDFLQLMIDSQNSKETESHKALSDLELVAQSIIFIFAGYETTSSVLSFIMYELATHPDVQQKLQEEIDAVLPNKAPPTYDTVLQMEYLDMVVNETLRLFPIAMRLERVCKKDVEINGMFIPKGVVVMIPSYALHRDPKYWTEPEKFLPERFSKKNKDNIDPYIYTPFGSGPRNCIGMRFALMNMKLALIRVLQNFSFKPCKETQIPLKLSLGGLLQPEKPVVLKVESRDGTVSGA

[10] = system: healthy male volunteers; assay: Randomized, double-blind, placebo-controlled single oral dose escalation study (safety, tolerability, pharmacokinetics); assay type: in vivo, human
Text: as §1

[11] = as above; assay type: in vivo, human; details: male, human, plasma; oral administration
Text: as §1

[12] = system: Mice; details: chronic administration; Berton et al., Science (2006); cited from earlier work
[13] = chronic treatment 1 mg/kg IP, 30 d

CN1CCN2c3c(cccc31)[C@@H]1CN(CCCC(=O)c3ccc(F)cc3)CC[C@@H]12 [Compound A]
efficacy for treatment of PTSD ([1]; adjunctive to SSRI, 12 weeks): effective | change in rating scale scores (CAPS, QIDS-SR, CGI-I, PANSS, SDS) ([1]; baseline to end of 12-week treatment, 20-40 mg/d adjunctive to SSRI): significant decline | time spent in the Interaction Zone, treatment alone ([2]; 1 mg/kg IP once daily for 30 d, no defeat, compared with untreated control mice): did not result in differences | time spent in proximity to the intruder after exposure to the intruder paradigm ([2]; 1 mg/kg IP once daily for 30 d, compared with Compound A alone): no significant reduction | effect on social defeat behavior [2, 13]: reversal of social defeat behavior | functional anti-depressant activity [2, 13]: has functional anti-depressant activity | affinity for muscarinic receptors [3]: no affinity | accumulation in plasma with repeated administration ([4]; Day 5 vs Day 1 pharmacokinetics): no accumulation | safety and tolerability ([4]; multiple oral doses of 5, 10 and 20 mg once daily for 5 days): safe and well tolerated | severity of adverse events ([5]; headache, dizziness, postural tachycardia, dry mouth, gastrointestinal complaints, somnolence): mild to moderate | hyper-prolactinemia ([5]; human, in vivo): does not produce hyper-prolactinemia | sexual dysfunction ([5]; human, in vivo): no reports of sexual dysfunction | safety and tolerability ([5]; range of doses 1-140 mg): safe and well-tolerated | cardiovascular side effects such as postural hypotension ([5]; related to alpha 1A activity, to date): not been associated with any cardiovascular side effects | CYP inhibition [6]: not a potent inhibitor | Ki [7]: 173 nM | Ki [8]: > 1000 nM | metabolizing enzyme [9]: metabolized predominantly by cytochrome P450 3A4 (CYP3A4) | dose dependence of pharmacokinetics ([10]; oral administration of increasing doses): dose-proportional linear pharmacokentics | QTc ([10]; single oral doses 2.5-30.0 mg): no significant increase | changes in 12-lead ECG or 24-hour Holter-ECG ([10]; single oral doses 2.5-30.0 mg): no clinically significant changes | changes in vital signs or clinical laboratory ([10]; single oral doses 2.5-30.0 mg): no dose-related clinically relevant changes | serious adverse events ([10]; single oral doses 2.5-30.0 mg): no serious adverse events | severity of adverse events ([10]; single oral doses 2.5-30.0 mg): mild to moderate | safety and tolerability ([10]; single oral doses of 2.5, 5.0, 10.0, 20.0 and 30.0 mg): safe and tolerated | Tmax [11]: ~1 h

CNCCC(Oc1ccc(C(F)(F)F)cc1)c1ccccc1 (stereo not drawn) [fluoxetine]
isolation behavior in social defeat/resident intruder model [12]: reversed
